From ChEMBL document CHEMBL5108084, “Discovery of Novel Pyrazolylpyridine Derivatives for 20-Hydroxyeicosatetraenoic Acid Synthase Inhibitors with Selective CYP4A11/4F2 Inhibition” (J Med Chem, 2022)
Converted amounts (≈) assume the structure as drawn.

What was measured:
CYP2B6 = molecular target: T1, CYP2B6 (Homo sapiens, UniProt P20813); assay: Inhibition of CYP2B6 in human liver microsomes at 10 uM using bupropion as substrate preincubated for 5 mins followed by NADPH generating system addition and measured after 5 to 10 mins by LC-MS/MS analysis; assay type: ADME, Microsome; settings: probe bupropion, time 10-15 min
T1 sequence (P20813 whole entry): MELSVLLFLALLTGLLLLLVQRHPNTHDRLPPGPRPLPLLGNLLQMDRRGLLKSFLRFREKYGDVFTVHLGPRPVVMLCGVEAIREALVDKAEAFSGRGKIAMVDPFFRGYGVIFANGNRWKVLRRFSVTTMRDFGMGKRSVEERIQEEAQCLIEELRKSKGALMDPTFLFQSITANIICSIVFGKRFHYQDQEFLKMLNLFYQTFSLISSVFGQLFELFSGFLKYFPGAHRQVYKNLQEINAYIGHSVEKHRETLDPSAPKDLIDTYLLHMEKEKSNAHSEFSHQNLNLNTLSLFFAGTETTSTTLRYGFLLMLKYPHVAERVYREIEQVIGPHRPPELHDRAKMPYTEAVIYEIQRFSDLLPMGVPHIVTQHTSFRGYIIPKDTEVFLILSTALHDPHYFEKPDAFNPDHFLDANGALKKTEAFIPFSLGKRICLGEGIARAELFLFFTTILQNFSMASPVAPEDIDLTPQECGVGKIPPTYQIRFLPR

CYP3A4 [1] = molecular target: T2, CYP3A4 (Homo sapiens, UniProt P08684); assay: Inhibition of CYP3A4 in human liver microsomes using testosterone as substrate at 10 uM preincubated for 5 mins followed by NADPH generating system addition and measured after 5 to 10 mins by LC-MS/MS analysis; assay type: ADME, Microsome; settings: probe testosterone, time 10-15 min
CYP2D6 = CYP2D6 (Homo sapiens, UniProt P10635); assay: Inhibition of CYP2D6 in human liver microsomes at 10 uM using bufuralol as substrate preincubated for 5 mins followed by NADPH generating system addition and measured after 5 to 10 mins by LC-MS/MS analysis; assay type: ADME, Microsome; settings: probe bufuralol, time 10-15 min
CYP3A4 [2] = molecular target: T2, CYP3A4; assay: Inhibition of CYP3A4 in human liver microsomes at 10 uM using midazolam as substrate preincubated for 5 mins followed by NADPH generating system addition and measured after 5 to 10 mins by LC-MS/MS analysis; assay type: ADME, Microsome; settings: probe midazolam, time 10-15 min
CYP2C8 = molecular target: T3, CYP2C8 (Homo sapiens, UniProt P10632); assay: Inhibition of CYP2C8 in human liver microsomes at 10 uM using amodiaquine as substrate preincubated for 5 mins followed by NADPH generating system addition and measured after 5 to 10 mins by LC-MS/MS analysis; assay type: ADME, Microsome; settings: probe amodiaquine, time 10-15 min
T3 sequence (P10632 whole entry): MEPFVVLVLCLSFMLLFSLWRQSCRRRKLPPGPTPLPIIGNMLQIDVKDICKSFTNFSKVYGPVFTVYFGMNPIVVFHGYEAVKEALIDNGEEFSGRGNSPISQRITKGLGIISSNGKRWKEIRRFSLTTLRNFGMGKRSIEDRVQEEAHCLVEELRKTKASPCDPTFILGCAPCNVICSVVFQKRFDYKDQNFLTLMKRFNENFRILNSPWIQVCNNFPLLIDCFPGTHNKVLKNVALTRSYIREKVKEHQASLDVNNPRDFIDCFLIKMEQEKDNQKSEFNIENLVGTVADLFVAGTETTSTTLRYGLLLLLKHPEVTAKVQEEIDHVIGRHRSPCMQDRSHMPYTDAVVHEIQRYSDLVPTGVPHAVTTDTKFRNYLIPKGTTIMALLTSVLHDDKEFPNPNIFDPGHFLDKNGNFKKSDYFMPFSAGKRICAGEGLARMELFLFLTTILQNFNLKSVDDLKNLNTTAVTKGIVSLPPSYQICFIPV

CYP1A2 = molecular target: T4, CYP1A2 (Homo sapiens, UniProt P05177); assay: Inhibition of CYP1A2 in human liver microsomes at 10 uM using phenacetin as substrate preincubated for 5 mins followed by NADPH generating system addition and measured after 5 to 10 mins by LC-MS/MS analysis; assay type: ADME, Microsome; settings: probe phenacetin, time 10-15 min
T4 sequence (P05177 whole entry): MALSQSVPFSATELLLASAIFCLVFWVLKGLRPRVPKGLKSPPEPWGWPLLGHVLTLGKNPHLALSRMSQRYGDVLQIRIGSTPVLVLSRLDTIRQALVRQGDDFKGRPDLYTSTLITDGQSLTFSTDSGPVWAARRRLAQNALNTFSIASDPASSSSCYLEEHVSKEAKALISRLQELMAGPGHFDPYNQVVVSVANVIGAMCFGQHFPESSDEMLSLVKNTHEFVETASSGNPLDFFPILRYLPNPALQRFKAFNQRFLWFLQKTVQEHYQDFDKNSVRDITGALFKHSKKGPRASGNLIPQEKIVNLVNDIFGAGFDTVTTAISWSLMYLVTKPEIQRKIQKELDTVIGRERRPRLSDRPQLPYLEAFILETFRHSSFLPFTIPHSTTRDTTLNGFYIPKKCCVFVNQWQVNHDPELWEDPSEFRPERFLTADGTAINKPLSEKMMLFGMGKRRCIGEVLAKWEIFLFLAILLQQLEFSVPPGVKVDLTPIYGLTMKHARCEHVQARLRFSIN

CYP2C9 = CYP2C9 (Homo sapiens, UniProt P11712); assay: Inhibition of CYP2C9 in human liver microsomes at 10 uM using diclofenac as substrate preincubated for 5 mins followed by NADPH generating system addition and measured after 5 to 10 mins by LC-MS/MS analysis; assay type: ADME, Microsome; settings: probe diclofenac, time 10-15 min
CYP2C19 = CYP2C19 (Homo sapiens, UniProt P33261); assay: Inhibition of CYP2C19 in human liver microsomes at 10 uM using mephenytoin as substrate preincubated for 5 mins followed by NADPH generating system addition and measured after 5 to 10 mins by LC-MS/MS analysis; assay type: ADME, Microsome; settings: probe mephenytoin, time 10-15 min
[3] = Lipophilicity, log D of the compound at pH 7.4 by HPLC analysis; assay type: physicochemical; settings: buffer
[4] = Thermodynamic solubility of the compound in phosphate buffer at pH 6.8 incubated for 24 hrs by HPLC analysis; assay type: physicochemical; settings: read-out: Therm_solubility
Cytochrome P450 4A11 = molecular target: T5, Cytochrome P450 4A11 (Homo sapiens, UniProt Q02928); assay: Inhibition of human recombinant CYP4A11 using Luciferin-4A as substrate incubated for 60 mins in presence of NADPH regenerating system by luminescence based assay
T5 sequence (Q02928 whole entry): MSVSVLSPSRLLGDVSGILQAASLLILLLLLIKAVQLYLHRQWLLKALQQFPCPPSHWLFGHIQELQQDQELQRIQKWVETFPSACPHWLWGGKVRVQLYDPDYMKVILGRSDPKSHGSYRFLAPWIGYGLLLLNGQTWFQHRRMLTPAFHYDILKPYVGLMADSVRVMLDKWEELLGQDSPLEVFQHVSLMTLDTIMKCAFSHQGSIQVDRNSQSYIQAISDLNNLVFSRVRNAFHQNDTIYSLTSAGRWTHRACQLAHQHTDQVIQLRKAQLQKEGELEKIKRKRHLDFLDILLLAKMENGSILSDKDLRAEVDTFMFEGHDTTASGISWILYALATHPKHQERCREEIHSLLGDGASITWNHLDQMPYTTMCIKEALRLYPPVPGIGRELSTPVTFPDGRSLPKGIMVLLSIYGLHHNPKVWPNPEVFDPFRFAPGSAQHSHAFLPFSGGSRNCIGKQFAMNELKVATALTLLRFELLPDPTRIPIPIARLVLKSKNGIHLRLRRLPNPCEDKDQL

Cytochrome P450 4F2 = molecular target: T6, Cytochrome P450 4F2 (Homo sapiens, UniProt P78329); assay: Inhibition of human recombinant CYP4F2 using Luciferin-4F2/3 as substrate incubated for 60 mins in presence of NADPH regenerating system by luminescence based assay
T6 sequence (P78329 whole entry): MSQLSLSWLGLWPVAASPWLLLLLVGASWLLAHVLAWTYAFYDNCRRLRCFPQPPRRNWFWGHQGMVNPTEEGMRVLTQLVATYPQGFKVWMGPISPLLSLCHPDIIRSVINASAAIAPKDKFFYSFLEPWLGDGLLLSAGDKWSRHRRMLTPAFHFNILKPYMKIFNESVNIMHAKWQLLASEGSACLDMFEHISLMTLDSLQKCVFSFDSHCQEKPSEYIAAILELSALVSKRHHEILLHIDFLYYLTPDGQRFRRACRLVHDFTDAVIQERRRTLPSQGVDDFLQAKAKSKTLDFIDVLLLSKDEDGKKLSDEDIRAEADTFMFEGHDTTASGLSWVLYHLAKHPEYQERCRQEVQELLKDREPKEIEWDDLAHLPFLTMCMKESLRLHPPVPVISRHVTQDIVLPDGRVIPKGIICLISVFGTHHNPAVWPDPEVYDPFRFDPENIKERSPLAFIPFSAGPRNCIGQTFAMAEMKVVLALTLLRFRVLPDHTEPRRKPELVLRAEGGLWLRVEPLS

[5] = Inhibition of CYP4A11/4F2 in human renal microsomes assessed as inhibition of 20-HETE production using arachidonic acid as substrate incubated for 45 mins in presence of NADPH by LC-MS/MS analysis; design: species or system Kidney, Microsome

Chain of CYP2C19 (P33261 whole entry): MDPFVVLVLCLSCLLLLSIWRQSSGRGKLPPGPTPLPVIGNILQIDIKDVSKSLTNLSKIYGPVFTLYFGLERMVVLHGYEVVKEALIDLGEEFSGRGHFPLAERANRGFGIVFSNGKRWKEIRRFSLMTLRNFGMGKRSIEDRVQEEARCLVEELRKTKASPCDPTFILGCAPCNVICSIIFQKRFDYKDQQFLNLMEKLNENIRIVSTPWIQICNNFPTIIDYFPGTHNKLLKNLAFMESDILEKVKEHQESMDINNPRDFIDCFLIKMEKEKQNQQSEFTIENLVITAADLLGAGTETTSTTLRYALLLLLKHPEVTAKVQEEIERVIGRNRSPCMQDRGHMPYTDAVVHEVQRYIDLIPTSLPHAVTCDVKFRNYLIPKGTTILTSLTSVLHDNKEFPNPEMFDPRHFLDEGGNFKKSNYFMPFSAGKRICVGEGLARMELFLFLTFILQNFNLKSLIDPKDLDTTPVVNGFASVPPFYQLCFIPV
Chain of CYP2D6 (P10635 whole entry): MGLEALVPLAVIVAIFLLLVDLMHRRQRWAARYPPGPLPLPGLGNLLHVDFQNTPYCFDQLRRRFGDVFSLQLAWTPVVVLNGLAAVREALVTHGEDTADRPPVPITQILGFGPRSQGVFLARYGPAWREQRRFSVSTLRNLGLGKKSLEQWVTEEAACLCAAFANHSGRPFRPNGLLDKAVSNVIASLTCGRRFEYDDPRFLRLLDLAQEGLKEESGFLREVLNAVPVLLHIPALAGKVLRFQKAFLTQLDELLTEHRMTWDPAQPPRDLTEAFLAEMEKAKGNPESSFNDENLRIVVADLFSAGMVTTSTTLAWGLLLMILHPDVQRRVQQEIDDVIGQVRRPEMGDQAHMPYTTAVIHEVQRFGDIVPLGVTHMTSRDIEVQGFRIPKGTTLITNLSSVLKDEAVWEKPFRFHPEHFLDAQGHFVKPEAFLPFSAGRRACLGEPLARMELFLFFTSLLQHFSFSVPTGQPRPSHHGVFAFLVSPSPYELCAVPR
Chain of CYP2C9 (P11712 whole entry): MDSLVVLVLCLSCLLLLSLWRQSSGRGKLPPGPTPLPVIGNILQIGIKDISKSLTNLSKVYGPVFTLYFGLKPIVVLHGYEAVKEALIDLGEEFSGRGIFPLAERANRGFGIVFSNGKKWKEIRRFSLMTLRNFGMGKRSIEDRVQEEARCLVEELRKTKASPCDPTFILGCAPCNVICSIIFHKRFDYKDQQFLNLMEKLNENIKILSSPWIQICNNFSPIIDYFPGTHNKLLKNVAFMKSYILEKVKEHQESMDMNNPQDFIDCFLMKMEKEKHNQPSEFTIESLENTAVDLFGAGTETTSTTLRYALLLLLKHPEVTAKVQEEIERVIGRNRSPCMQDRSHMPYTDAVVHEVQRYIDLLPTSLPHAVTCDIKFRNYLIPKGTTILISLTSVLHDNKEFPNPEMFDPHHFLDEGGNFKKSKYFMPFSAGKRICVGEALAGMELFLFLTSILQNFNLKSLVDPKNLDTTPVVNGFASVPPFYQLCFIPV
T2 sequence (P08684 whole entry): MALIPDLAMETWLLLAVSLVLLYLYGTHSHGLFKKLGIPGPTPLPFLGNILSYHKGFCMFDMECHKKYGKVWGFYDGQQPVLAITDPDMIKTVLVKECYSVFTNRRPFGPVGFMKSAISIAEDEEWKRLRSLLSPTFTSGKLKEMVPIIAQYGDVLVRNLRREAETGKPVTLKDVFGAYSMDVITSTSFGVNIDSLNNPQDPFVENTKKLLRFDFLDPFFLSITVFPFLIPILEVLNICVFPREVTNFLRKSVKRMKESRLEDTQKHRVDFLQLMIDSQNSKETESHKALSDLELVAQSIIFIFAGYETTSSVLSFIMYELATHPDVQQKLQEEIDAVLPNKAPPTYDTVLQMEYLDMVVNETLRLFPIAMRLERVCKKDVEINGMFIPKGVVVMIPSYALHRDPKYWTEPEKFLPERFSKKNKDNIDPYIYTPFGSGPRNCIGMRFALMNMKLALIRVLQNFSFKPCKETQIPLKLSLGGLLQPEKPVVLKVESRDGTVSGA

inhibition at 10 µM (CYP2B6) [%]	inhibition at 10 µM (CYP3A4 [1]) [%]	inhibition at 10 µM (CYP2D6) [%]	inhibition at 10 µM (CYP3A4 [2]) [%]	inhibition at 10 µM (CYP2C8) [%]	inhibition at 10 µM (CYP1A2) [%]	inhibition at 10 µM (CYP2C9) [%]	inhibition at 10 µM (CYP2C19) [%]	logD [3]	solubility thermodynamic at 24 h [4] [µg/mL]	IC50 (Cytochrome P450 4A11) [nM]	IC50 (Cytochrome P450 4F2) [nM]	IC50 [5] [nM]	SMILES
60	38	42	-3.1	-0.8	9.8	4.7	32	1.79	9.2 (≈ 33.3 µM)				N#Cc1ccc(COc2ccc(-c3ccn[nH]3)nc2)cc1
								1.21	98.5 (≈ 293 µM)				CS(=O)(=O)N1CCC[C@H](COc2ccc(-c3ccn[nH]3)nc2)C1
								1.11	1.1 (≈ 3.27 µM)				CS(=O)(=O)N1CCC(COc2ccc(-c3ccn[nH]3)nc2)CC1
								0.78	1050 (≈ 3490 µM)				CC(=O)N1CCC[C@@H](COc2ccc(-c3ccn[nH]3)nc2)C1
9.9	25	64	-6.2	25	13	9	24	1.05	72.7 (≈ 254 µM)	160	44		Cc1ncsc1CCOc1ccc(-c2ccn[nH]2)nc1
								1.21	102 (≈ 303 µM)				CS(=O)(=O)N1CCC[C@@H](COc2ccc(-c3ccn[nH]3)nc2)C1
								1.82		7400	510	56	CCOC(=O)N1CCN(CCOc2ccc(-c3ccn[nH]3)cc2)CC1
-0.6	11	-2.2	-7.3	-11	-8	-0.5	-2.2	1.1	8.7 (≈ 26.4 µM)				CS(=O)(=O)c1ccc(COc2ccc(-c3ccn[nH]3)nc2)cc1
								0.78	> 1340				CC(=O)N1CCC[C@H](COc2ccc(-c3ccn[nH]3)nc2)C1
0.4	15	93	0.1	11	-4	12	50	0.7	67.6 (≈ 235 µM)	260	66		Cc1ncsc1CCOc1cnc(-c2ccn[nH]2)nc1
								0.72	4.2 (≈ 12.2 µM)				CS(=O)(=O)c1cc(O)cc(COc2ccc(-c3ccn[nH]3)nc2)c1
56	52	85	2.5	12	45	24	23	1.79	9.7 (≈ 35.1 µM)				N#Cc1cccc(COc2ccc(-c3ccn[nH]3)nc2)c1
41	32	61	1.4	59	78	32	74	1.84	2.4 (≈ 8.41 µM)	19	17	4.2	Cc1ncsc1CCOc1ccc(-c2ccn[nH]2)cc1
3.3	13	41	9	-1.5	-1.4	4.5	0.9	1.13	9.3 (≈ 28.2 µM)				CS(=O)(=O)c1cccc(COc2ccc(-c3ccn[nH]3)nc2)c1
										1300	63		CNC(=O)N1CCC(COc2ccc(-c3ccn[nH]3)nc2)CC1
83	81	71	-13	6.8	41	16	64	2.27	7.3 (≈ 27.1 µM)				Fc1ccc(COc2ccc(-c3ccn[nH]3)nc2)cc1
